The results in this text go back to PubChem BioAssay (NCI).

Molecules are shown by their SMILES.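 Five compound concentrations were applied to cells in 96-well plates for 48 hours; endpoints were derived by simple linear interpolation of the resulting dose-response curve. At the TGI there is no net growth.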 Bounds are passed on as bounds.

Among the test systems are DLD-1 colon; DMS 114 small cell lung; DMS 273 small cell lung; HOP-18 NSCLC; IGROV1 ovarian; KM20L2 colon; LXFL 529 NSCLC; M19-MEL melanoma; MALME-3M melanoma; NCI-H226 lung; NCI-H460 lung; SK-OV-3 ovarian; SNB-19 CNS; SNB-78 CNS; SW-620 colon; XF 498 CNS; MDA-MB-231 breast; RXF-631 renal.
Holding throughout (assay): DTP human tumour cell line panel, 48 h

By TGI is commonly meant the concentration giving total growth inhibition. A low value points to more potent growth arrest. Regarding `COc1cc2c(cc1OC)[C@H]1C(COC(=O)c3ccccc3)CSC(=Nc3ccccc3)N1CC2` (some centres not stated), the total growth inhibition concentration (TGI) in the experiment on DLD-1 colon, with DMS 114 small cell lung, in the experiment with DMS 273 small cell lung, in the experiment on HOP-18 NSCLC, in the experiment on IGROV1 ovarian and in the experiment on KM20L2 colon was more than 100 µM throughout. Further, the total growth inhibition concentration (TGI) with LXFL 529 NSCLC, in the experiment with M19-MEL melanoma, in the experiment on MALME-3M melanoma, in the experiment with NCI-H226 lung, with NCI-H460 lung and in the experiment with SK-OV-3 ovarian was more than 100 µM in each case. For the same compound, the TGI with SNB-19 CNS, in the experiment with SNB-78 CNS, in the experiment with SW-620 colon and in the experiment on XF 498 CNS was more than 100 µM throughout.
With `CCCCN(Cc1ccccc1)C(=NC#N)N(Cc1ccccc1)Cc1ccccc1`, the total growth inhibition concentration (TGI) with DLD-1 colon is more than 100 µM; in the experiment with DMS 273 small cell lung, 43.6 µM; with IGROV1 ovarian, more than 89.5 µM; in the experiment on KM20L2 colon it was 95.6 µM; in the experiment with LXFL 529 NSCLC, 34.3 µM; in the experiment on M19-MEL melanoma, 62.6 µM. The TGI with MALME-3M melanoma was 79.4 µM; with MDA-MB-231 breast, 51.7 µM; in the experiment with NCI-H226 lung, 70.5 µM; with NCI-H460 lung it was more than 100 µM; in the experiment with SK-OV-3 ovarian it was more than 96.1 µM; in the experiment on SNB-19 CNS it was more than 100 µM. Besides, the TGI in the experiment with SNB-78 CNS and in the experiment with SW-620 colon was more than 100 µM in each case.
Consider `COc1ccc2c(c1)Oc1cc(O)ccc1[C@@H]2c1ccccc1C(=O)NC(C)c1ccccc1` (some centres not stated), for which the TGI in the experiment with DLD-1 colon came out at 39.4 µM; with DMS 114 small cell lung, 32.3 µM; in the experiment with DMS 273 small cell lung, 28.2 µM; in the experiment with IGROV1 ovarian, 41.3 µM; in the experiment with KM20L2 colon it was 31.4 µM; in the experiment on LXFL 529 NSCLC, 30.1 µM. For the same compound, the concentration for total growth inhibition (TGI) in the experiment with M19-MEL melanoma was determined as 32.2 µM; in the experiment on MALME-3M melanoma, 31.3 µM; with NCI-H226 lung, 35.4 µM; with NCI-H460 lung it was 27.4 µM; with SK-OV-3 ovarian, 49.1 µM; with SNB-19 CNS, 32.7 µM. The TGI with SNB-78 CNS worked out at 32.6 µM; in the experiment on SW-620 colon, 38.9 µM.
Take `CCOC(=O)/C(=C\c1cccs1)P(=O)(OCC)OCC`: the TGI was 60.6 µM in the experiment on DLD-1 colon; 51.7 µM in the experiment on DMS 114 small cell lung; more than 100 µM in the experiment on DMS 273 small cell lung; more than 100 µM in the experiment with HOP-18 NSCLC; 49.7 µM in the experiment with KM20L2 colon; 41.4 µM with LXFL 529 NSCLC. In addition, the TGI was 45 µM in the experiment on M19-MEL melanoma; 52.6 µM in the experiment on MALME-3M melanoma; 43.3 µM in the experiment on NCI-H226 lung; 46.9 µM with NCI-H460 lung; more than 100 µM in the experiment on RXF-631 renal; more than 100 µM with SK-OV-3 ovarian. The TGI is more than 100 µM with SNB-19 CNS, more than 100 µM with SNB-78 CNS and 36.6 µM with SW-620 colon.
On to `COc1cc(C(O)C(=O)c2nc3ccc([N+](=O)[O-])cc3[nH]c2=O)ccc1O` (configuration not stated), for which the TGI with DLD-1 colon, in the experiment on DMS 114 small cell lung, with DMS 273 small cell lung, with IGROV1 ovarian, in the experiment with KM20L2 colon and in the experiment with LXFL 529 NSCLC was more than 100 µM throughout. Further, the TGI in the experiment with M19-MEL melanoma, in the experiment with MALME-3M melanoma, in the experiment with NCI-H226 lung, in the experiment on NCI-H460 lung, in the experiment with SK-OV-3 ovarian and in the experiment with SNB-19 CNS was more than 100 µM each time. Moreover, the total growth inhibition concentration (TGI) with SNB-78 CNS, with SW-620 colon and in the experiment with XF 498 CNS was more than 100 µM in each case.
For the compound `CC(=O)C(CN(Cc1ccccc1)Cc1ccccc1)C(c1ccccc1)c1c(O)c2ccccc2oc1=O` (configuration not stated), the concentration for total growth inhibition (TGI) in the experiment with DLD-1 colon, with IGROV1 ovarian, in the experiment on KM20L2 colon, with LXFL 529 NSCLC, in the experiment on M19-MEL melanoma and in the experiment with MALME-3M melanoma was more than 100 µM throughout. Besides, the total growth inhibition concentration (TGI) with NCI-H226 lung, with NCI-H460 lung, with RXF-631 renal, in the experiment on SK-OV-3 ovarian, in the experiment with SNB-19 CNS and in the experiment on SNB-78 CNS was more than 100 µM in each case. The TGI in the experiment on SW-620 colon and with XF 498 CNS was more than 100 µM throughout.
Turning to `Nc1nc2n[nH]nc2c(=O)[nH]1`, the TGI with DLD-1 colon was more than 100 µM; in the experiment on DMS 114 small cell lung it was 54.7 µM; in the experiment with DMS 273 small cell lung, 18.2 µM; in the experiment with HOP-18 NSCLC, 85.3 µM; in the experiment with IGROV1 ovarian it was more than 100 µM; in the experiment with KM20L2 colon it was more than 100 µM. For the same compound, the TGI was more than 100 µM with LXFL 529 NSCLC; 16.8 µM in the experiment on MALME-3M melanoma; more than 100 µM with MDA-MB-231 breast; 57.5 µM in the experiment with NCI-H226 lung; more than 89.4 µM in the experiment with NCI-H460 lung; 9.21 µM in the experiment with SK-OV-3 ovarian. Moreover, the concentration for total growth inhibition (TGI) in the experiment with SNB-19 CNS, in the experiment with SNB-78 CNS and in the experiment on SW-620 colon was more than 100 µM each time.
With `CC(C)(CN1CCCCC1)C(=O)/C=C/c1ccc(Cl)cc1`, the concentration for total growth inhibition (TGI) came out at 22.9 µM in the experiment with DLD-1 colon; 15.4 µM with DMS 114 small cell lung; 13.3 µM in the experiment on DMS 273 small cell lung; 23.1 µM in the experiment on HOP-18 NSCLC; 7.48 µM with KM20L2 colon; 9.75 µM in the experiment on LXFL 529 NSCLC. Further, the TGI with M19-MEL melanoma is 23.4 µM; with MALME-3M melanoma, 18.9 µM; in the experiment with NCI-H226 lung it was 14.7 µM; in the experiment on NCI-H460 lung, 8.21 µM; in the experiment on RXF-631 renal it was 29.9 µM; in the experiment on SK-OV-3 ovarian it was 23.5 µM. Also, the TGI in the experiment on SNB-19 CNS amounted to 17 µM; in the experiment with SNB-78 CNS it was 11.8 µM; in the experiment with SW-620 colon, 10.8 µM.
Consider `COC(=O)NC12CC3CC(CC(F)(C3)C1)C2`, for which the TGI in the experiment with DLD-1 colon, in the experiment on DMS 273 small cell lung, in the experiment on IGROV1 ovarian, in the experiment on KM20L2 colon, in the experiment with M19-MEL melanoma and in the experiment on MALME-3M melanoma was more than 100 µM each time. The TGI in the experiment on NCI-H460 lung, with RXF-631 renal, in the experiment on SK-OV-3 ovarian, in the experiment with SNB-19 CNS, in the experiment with SNB-78 CNS and with SW-620 colon was more than 100 µM each time. In the experiment with XF 498 CNS, the concentration for total growth inhibition (TGI) is more than 100 µM.
For `CN(C)CC1CCCC(CN(C)C)C1=NOC(=O)c1ccccc1` (configuration not stated), the TGI with DLD-1 colon, with DMS 114 small cell lung, in the experiment on DMS 273 small cell lung, in the experiment on HOP-18 NSCLC, in the experiment with IGROV1 ovarian and in the experiment with KM20L2 colon was more than 100 µM throughout. Further, the total growth inhibition concentration (TGI) in the experiment with LXFL 529 NSCLC, in the experiment on M19-MEL melanoma, in the experiment with MALME-3M melanoma, in the experiment on NCI-H226 lung, in the experiment with NCI-H460 lung and in the experiment with SK-OV-3 ovarian was more than 100 µM throughout. The TGI with SNB-19 CNS, in the experiment on SNB-78 CNS, in the experiment with SW-620 colon and with XF 498 CNS was more than 100 µM throughout.
